Data taken from ChEMBL document CHEMBL3045716, “Isolation and characterization of n-octacosanoic acid from Viburnum foetens: a novel antibiofilm agent against Streptococcus Mutans” (2012).
Converted amounts (≈) assume the structure as drawn. The source made the active and inactive calls. No cut-off for these calls is given here.

Experiments:
Streptococcus mutans [1] = assay: Antimicrobial activity against Streptococcus mutans UA159 after 24 hr by two-fold serial dilution method; assay type: functional; details: UA159, 24 h
Streptococcus mutans [2] = assay: Inhibition of Streptococcus mutans UA159 biofilm formation assessed as conversion of carbohydrates to organic acid measured as pH at 10 ug/ml; assay type: functional
Streptococcus mutans [3] = assay: Inhibition of Streptococcus mutans UA159 biofilm formation assessed as conversion of carbohydrates to organic acid measured as pH at 5 ug/ml; assay type: functional
Streptococcus mutans [4] = assay: Inhibition of Streptococcus mutans UA159 biofilm formation assessed as conversion of carbohydrates to organic acid measured as pH at 2.5 ug/ml; assay type: functional
Streptococcus mutans [5] = assay: Inhibition of Streptococcus mutans UA159 biofilm formation assessed as conversion of carbohydrates to organic acid measured as pH at 1.25 ug/ml; assay type: functional
Streptococcus mutans [6] = assay: Inhibition of Streptococcus mutans UA159 biofilm formation assessed as conversion of carbohydrates to organic acid measured as pH at 80 ug/ml; assay type: functional
Streptococcus mutans [7] = assay: Inhibition of Streptococcus mutans UA159 biofilm formation assessed as conversion of carbohydrates to organic acid measured as pH at 40 ug/ml; assay type: functional
Streptococcus mutans [8] = assay: Inhibition of Streptococcus mutans UA159 biofilm formation assessed as conversion of carbohydrates to organic acid measured as pH at 20 ug/ml; assay type: functional
Streptococcus mutans [9] = assay: Inhibition of Streptococcus mutans UA159 biofilm formation assessed as conversion of carbohydrates to organic acid measured as pH at 0.625 ug/ml; assay type: functional
Streptococcus mutans [10] = assay: Inhibition of Streptococcus mutans UA159 biofilm formation assessed as conversion of carbohydrates to organic acid measured as pH at 0.312 ug/ml; assay type: functional
Streptococcus mutans [11] = assay: Inhibition of Streptococcus mutans UA159 biofilm formation assessed as biofilm thickness at 20 ug/ml after 24 hr by confocal laser scanning microscopic analysis (reference value: 19.74 +/- 0.5 uM); assay type: functional
Streptococcus mutans [12] = assay: Inhibition of Streptococcus mutans UA159 biofilm formation assessed as inability of cells to aggregrate and form clumps at MIC after 24 hr by confocal laser scanning microscopic analysis; assay type: functional, organism-based
[13] = biological target: T1, Glucosyltransferase-SI (Streptococcus mutans serotype c (strain ATCC 700610 / UA159)) (UniProt P13470); assay: Inhibition of Streptococcus mutans UA159 Glucosyltransferase assessed as water-insoluble glucan production using sucrose as substrate at 2.5 ug/ml after 24 hr
T1 sequence (whole entry): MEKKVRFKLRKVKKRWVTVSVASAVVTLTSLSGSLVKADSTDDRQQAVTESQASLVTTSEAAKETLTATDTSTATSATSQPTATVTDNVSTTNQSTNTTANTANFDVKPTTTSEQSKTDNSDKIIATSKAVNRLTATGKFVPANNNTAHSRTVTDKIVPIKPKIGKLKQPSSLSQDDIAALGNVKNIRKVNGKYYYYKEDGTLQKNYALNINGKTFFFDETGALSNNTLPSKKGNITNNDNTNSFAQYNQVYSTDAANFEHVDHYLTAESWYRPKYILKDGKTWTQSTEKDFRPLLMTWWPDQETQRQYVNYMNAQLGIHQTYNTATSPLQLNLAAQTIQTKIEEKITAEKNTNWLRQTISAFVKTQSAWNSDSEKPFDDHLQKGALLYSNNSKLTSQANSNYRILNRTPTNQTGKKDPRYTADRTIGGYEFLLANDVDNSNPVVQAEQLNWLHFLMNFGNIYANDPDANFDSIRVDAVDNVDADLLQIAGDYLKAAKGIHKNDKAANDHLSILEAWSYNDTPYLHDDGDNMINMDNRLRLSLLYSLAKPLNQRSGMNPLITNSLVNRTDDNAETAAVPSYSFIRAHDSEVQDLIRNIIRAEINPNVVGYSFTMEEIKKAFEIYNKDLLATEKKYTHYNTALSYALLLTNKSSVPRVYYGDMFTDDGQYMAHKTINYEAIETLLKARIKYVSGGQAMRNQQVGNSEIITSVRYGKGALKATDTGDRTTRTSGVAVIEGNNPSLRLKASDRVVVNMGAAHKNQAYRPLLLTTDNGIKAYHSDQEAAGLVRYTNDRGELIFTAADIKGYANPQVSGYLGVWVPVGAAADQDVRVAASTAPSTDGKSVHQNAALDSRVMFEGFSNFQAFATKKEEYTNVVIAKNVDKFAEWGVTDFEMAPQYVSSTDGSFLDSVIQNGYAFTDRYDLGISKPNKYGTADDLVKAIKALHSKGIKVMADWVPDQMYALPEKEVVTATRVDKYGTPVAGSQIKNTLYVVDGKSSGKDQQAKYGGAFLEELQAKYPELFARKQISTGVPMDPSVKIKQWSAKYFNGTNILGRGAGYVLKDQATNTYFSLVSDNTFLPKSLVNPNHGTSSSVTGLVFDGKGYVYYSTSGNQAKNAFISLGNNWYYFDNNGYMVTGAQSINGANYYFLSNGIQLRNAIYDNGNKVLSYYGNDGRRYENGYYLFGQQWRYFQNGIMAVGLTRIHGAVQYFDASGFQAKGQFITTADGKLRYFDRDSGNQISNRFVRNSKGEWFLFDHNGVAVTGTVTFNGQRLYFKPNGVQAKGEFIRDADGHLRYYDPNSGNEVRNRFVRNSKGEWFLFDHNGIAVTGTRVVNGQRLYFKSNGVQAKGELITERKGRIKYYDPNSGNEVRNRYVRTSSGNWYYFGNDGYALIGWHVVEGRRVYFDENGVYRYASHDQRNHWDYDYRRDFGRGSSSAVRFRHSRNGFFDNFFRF

Streptococcus mutans [14] = assay: Inhibition of Streptococcus mutans UA159 cell surface hydrophobicity at 20 ug/ml by spectrophotometry (reference value: 88.01 +/- 1.94%); assay type: functional
Streptococcus mutans [15] = assay: Inhibition of Streptococcus mutans UA159 cell surface hydrophobicity at 5 ug/ml by spectrophotometry (reference value: 88.01 +/- 1.94%); assay type: functional
Streptococcus mutans [16] = assay: Inhibition of sucrose-dependent adhesion of Streptococcus mutans UA159 to saliva-coated glass surface at 80 ug/ml by spectrophotometry; assay type: functional, organism-based
Streptococcus mutans [17] = assay: Inhibition of sucrose-dependent adhesion of Streptococcus mutans UA159 to saliva-coated glass surface at 10 ug/ml by spectrophotometry; assay type: functional
Streptococcus mutans [18] = assay: Inhibition of sucrose-dependent adhesion of Streptococcus mutans UA159 to saliva-coated glass surface at 1.25 ug/ml by spectrophotometry; assay type: functional
Streptococcus mutans [19] = assay: Inhibition of adhesion of Streptococcus mutans UA159 to saliva-coated glass surface at 0.156 to 5120 ug/ml by spectrophotometry; assay type: functional, organism-based
Streptococcus mutans [20] = assay: Inhibition of Streptococcus mutans UA159 biofilm formation after 24 hr at 20 ug/ml by crystal violet staining analysis; assay type: functional; details: UA159, 24 h
Streptococcus mutans [21] = assay: Inhibition of Streptococcus mutans UA159 biofilm formation at sub-MIC after 24 hr by crystal violet staining analysis; assay type: functional
Streptococcus mutans [22] = assay: Inhibition of Streptococcus mutans UA159 biofilm formation after 24 hr by crystal violet staining analysis; assay type: functional, organism-based

Compound `CCCCCCCCCCCCCCCCCCCCCCCCCCCC(=O)O` [N-OCTACOSANOIC ACID] has an MIC (Streptococcus mutans [1]) of 80 µg/mL (≈ 188 µM), a pH (Streptococcus mutans [2]) of 6.48 and a pH (Streptococcus mutans [3]) of 6.02. For the same compound, the pH (Streptococcus mutans [4]) was 5.68, the pH (Streptococcus mutans [5]) was 5.14 and the pH (Streptococcus mutans [6]) was 7.55. The pH (Streptococcus mutans [7]) was 6.98, the pH (Streptococcus mutans [8]) was 6.66 and the pH (Streptococcus mutans [9]) was 4.94. The pH (Streptococcus mutans [10]) was 4.65, the biofilm thickness (Streptococcus mutans [11]) was 12.7 µm and the inhibition (Streptococcus mutans [12]) was “Active”. It also gave an inhibition [13] of 50%, an inhibition at 20 µg/mL (Streptococcus mutans [14]) of 20.1% and an inhibition at 5 µg/mL (Streptococcus mutans [15]) of 48.4%. The inhibition (Streptococcus mutans [16]) was “Active”, the inhibition at 10 µg/mL (Streptococcus mutans [17]) was 50% and the inhibition at 1.25 µg/mL (Streptococcus mutans [18]) was 61.3%. The inhibition (Streptococcus mutans [19]) was “Active”, the inhibition at 20 µg/mL (Streptococcus mutans [20]) was 50% and the “inhibition (INH)” value (Streptococcus mutans [21]) was 60%. The inhibition (Streptococcus mutans [22]) was “Dose-dependent effect”.
